The text below walks through data of PubChem BioAssay AID488888 (Sanford-Burnham Center for Chemical Genomics, 2010).

What is called EC50 is the concentration at which the effect is half-maximal.

The structures appear in SMILES notation.

The target of the experiment is Alkaline phosphatase, placental type (Homo sapiens) (UniProt P05187). The experiment in a line: PLAP enzyme activators, dose response, selectivity assay for human IAP activator project, biochemical, uHTS hits, luminescence (AID 488888). The note with it: purified PLAP, CDP-Star luminescence, 30 min.
Chain of Alkaline phosphatase, placental type (Homo sapiens) (P05187 whole entry, looked up): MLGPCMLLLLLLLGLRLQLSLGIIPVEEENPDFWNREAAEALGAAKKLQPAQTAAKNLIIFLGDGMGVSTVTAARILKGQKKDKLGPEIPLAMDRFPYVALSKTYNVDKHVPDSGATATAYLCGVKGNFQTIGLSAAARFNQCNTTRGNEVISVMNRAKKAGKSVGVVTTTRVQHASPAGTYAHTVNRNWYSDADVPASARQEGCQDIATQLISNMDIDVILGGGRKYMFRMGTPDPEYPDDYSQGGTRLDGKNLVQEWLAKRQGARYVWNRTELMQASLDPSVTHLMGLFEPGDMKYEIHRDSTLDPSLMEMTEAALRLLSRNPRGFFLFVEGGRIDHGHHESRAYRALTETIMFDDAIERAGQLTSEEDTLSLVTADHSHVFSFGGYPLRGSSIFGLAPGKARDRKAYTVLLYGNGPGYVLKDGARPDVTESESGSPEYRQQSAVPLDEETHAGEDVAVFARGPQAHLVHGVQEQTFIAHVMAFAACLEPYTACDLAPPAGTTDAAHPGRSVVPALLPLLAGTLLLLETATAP
For the compound `CCOC(=O)c1c(C)[nH]c(C(=O)N/N=C/c2cc([N+](=O)[O-])ccc2O)c1C`, the EC50 was 23.2 µM.
Regarding `CCc1ccc(/C=N/Nc2ncnc3nc[nH]c23)cc1`, the EC50 was 13.4 µM.
`O=C(N/N=C/c1c(O)ccc2ccccc12)c1[nH]ncc1Br`: the EC50 is 11 µM.
As for `Cc1cccc(NS(=O)(=O)c2cccc(C(=O)NNC(=O)c3ccccc3O)c2)c1`, the figure is 42.3 µM.
As for `CN(CC(=O)Nc1ccccc1F)CC(=O)Nc1ccc(F)c(F)c1F`, the figure is 28.4 µM; as for `CCOc1ccc(/C=N/NC(=O)c2[nH]ncc2Br)c(O)c1`, 11.2 µM.
As for `Cn1c(/C(C#N)=C(\O)c2ccc(Br)s2)nc2ccccc21`, the figure is 62.2 µM.
For the compound `Cc1cc(OCC(=O)Nc2ncn[nH]2)ccc1Cl`, the concentration giving a half-maximal response (EC50) is 17 µM.
As for `CCOc1ccc(CC(=O)NNC(=S)NC2CCCCC2)cc1OCC`, the figure is 20.4 µM.
Next, `CC(NC(=S)NC1CCC(C(C)(C)C)CC1)c1ccccc1` (centres undefined): 41.1 µM; `Cc1ccc(O)c(/C=N/NC(=O)c2[nH]ncc2Br)c1`: 75.5 µM; `Cc1cccc(-n2ncc3c(NNC(=O)c4ccco4)ncnc32)c1`: 9.19 µM.
Next, `CCOCCCNC(=O)CCC(=O)NNc1nc2ccccc2c2nc(-c3ccccc3)nn12`: 19.1 µM.
Turning to `O=C(N/N=C/c1c(F)cccc1Cl)c1cc(C2CC2)[nH]n1`, the EC50 was 66.8 µM.
Next, `CCOc1cc(/C=N/NC(=O)C(=O)N/N=C/c2ccc(O)c(OCC)c2)ccc1O`: 70 µM.
Turning to `O=C(CCCCC(=O)NNC(=O)COc1ccccc1)NNC(=O)COc1ccccc1`, the EC50 was 12 µM.
In the case of `CC(C)(C)NC(=O)C(=O)NNC(=O)COc1ccccc1`, the EC50 was 35.9 µM.
Next, `Cc1nc2c3ccccc3nc(NNC(=O)CCC(=O)NCCC(C)C)n2n1`: 13.9 µM; `CCOc1cccc(-c2nc(C(N)=O)c3[nH]c(=O)n(-c4cccc(Cl)c4)c3n2)c1O`: 1.91 µM; `Cc1nc2c3ccccc3nc(NNC(=O)CCC(=O)N3CCCC(C)C3)n2n1` (centres undefined): 13.5 µM.
Next, `CC(C)C(=O)NC(=S)Nc1ccccc1C(=O)Nc1ccccc1`: 9.82 µM; `O=C(NNC(=S)NCc1ccco1)c1ccccc1Br`: 13.7 µM; `Cc1nc(S/C(=C/c2ccc(-c3ccc(Cl)cc3)o2)C(=O)O)n[nH]1`: 13.2 µM.
As for `Cc1cc(C)cc(CC(Cc2nc3ccccc3[nH]2)c2nc3ccccc3[nH]2)c1` (centres undefined), the figure is 82.7 µM; as for `COc1ccc(CN2CCC(n3nccc3NC(=O)CCCc3ccccc3)CC2)cc1C`, 71.6 µM; as for `CN(C)S(=O)(=O)c1cccc(NC(=S)NNC(=O)c2cc3ccccc3cc2O)c1`, 13.5 µM.
On to `CN(Cc1ccccc1)C(=O)c1[nH]cnc1C(=O)Nc1nccs1`, for which the 50% effective concentration (EC50) is 17.8 µM.
For `CCC(NC(=S)NC1CCCCC1)c1ccc(C(C)C)cc1` (centres undefined), the concentration for a half-maximal effect (EC50) is 60 µM.
Next, `Cc1ccc(NC(=O)NNC(=O)c2cc3ccccc3cc2O)cc1`: 15.3 µM; `CCN(CC)c1ccc(/C=N/NC(=O)c2nnn(-c3nonc3N)c2C(C)C)c(O)c1`: 73.7 µM; `Cc1cc(=O)[nH]c(-n2[nH]c3c(c2=O)CCCC3)n1`: 13.6 µM.
As for `CCOc1ccccc1CN1CCC(n2nccc2NC(=O)CCc2ccccc2)CC1`, the figure is 84 µM; as for `Cc1ccccc1CN1CCC(n2nccc2NC(=O)CCCc2ccccc2)CC1`, 75.2 µM.
Next, `CSCCC(NS(=O)(=O)c1ccc(C)cc1)C(=O)NNC(=O)c1csc(N2CCOCC2)n1` (centres undefined): 16.1 µM.
In the case of `CC1C(=O)NN=C1C(=O)N/N=C\c1ccc(O)cc1O` (centres undefined), the 50% effective concentration (EC50) was 13.2 µM.
Next, `COc1ccccc1CNC(=O)CN(c1ccc(C)cc1)S(=O)(=O)c1c(C)noc1C`: 88.3 µM.
As for `CC(C)CC(=O)NC(=S)NNC(=O)c1ccc(NC(=O)C2CCCCC2)cc1`, the figure is 61.6 µM; as for `CCn1c(C)nc2cc(C(=O)NNC(=S)Nc3ccccc3)ccc21`, 14.7 µM; as for `CC(C)(C)OC(=O)N1CCC(NC(=O)c2[nH]cnc2C(=O)Nc2ccon2)CC1`, 15.2 µM.
